{
  "source": "patent US20170107482A1",
  "about": "“ANIMAL CELL REGENERATION SPEED CONTROLLING METHOD AND ANIMAL CELL REGENERATION SPEED CONTROLLER” (TOYOTA BOSHOKU KABUSHIKI KAISHA, priority 2015, published 2017)",
  "system": "Planarians (Dugesia japonica)",
  "test": "Animal cell regeneration experiment (ii): head (eye) regeneration of cut planarians after immersion in Azakenpaullone",
  "type": "in vivo",
  "settings": "0.5 μM, 24 h immersion; for individuals died and disappeared before regeneration: among the total nine individuals",
  "experimental": "Hereinafter, the present invention will be specifically described using Examples. In the following Examples 1 and 2, regeneration experiment was conducted using Planarians (Dugesia japonica) as one kind of flatworm.\nThereafter, the planarians belonging to Groups A and B were respectively placed in petri dishes, so that the amount of water per planarian was 2.5 mL, in a thermostat bath set to a temperature of 13° C. The planarians were grown for 14 days ([…]) under a condition and in an environment such that water was changed every three days. The respective regeneration states of their heads in this period were observed over time with an optical microscope every 24 hours after cutting to evaluate the degree of regeneration after 14 days had elapsed based on the following three references (see Teresa Adel et al., Dev Genes Evol (2008) 218:89-103, as for the references for the degree of regeneration). The planarians ranked as “regeneration degree 2” or “regeneration degree 3” were determined to “have been regenerated,” and those ranked as “regeneration degree 1” were determined to “be unregenerated.” The number of planarians determined to “have been regenerated” was counted over time, and the result thereof is indicated in Table 1.\n“Regeneration degree 1”: Eyes being developed cannot be identified.\n“Regeneration degree 2”: Eyes being developed can be identified.\n“Regeneration degree 3”: Eyes can be identified.\nFirstly, planarians having an equivalent size were selected, and divided into Group C (n=9) and Group D (n=9). For the planarians belonging to Group C, the living bodies were cut near the center at a timing in the same time zone as that for Group A in Example 1 (namely, immediately after the RGA turned downward from the maximum value immediately before) (see FIG. 2).\nFor the planarians (n=9) belonging to Group D, the living bodies were cut near the center at a timing in the same time zone as that for Group B in Example 1 (namely, immediately after the RGA turned upward from the minimum value immediately before) (see FIG. 2).\nThereafter, the planarians belonging to Groups C and D were respectively immersed for 24 hours in a solution of Azakenpaullone that is a drug suppressing normal differentiation at a concentration of 0.5 μM, then placed in petri dishes, so that the amount of water per planarian was 2.5 mL, in a thermostat bath set to a temperature of 13° C., and were grown for 15 days ([…]) under a condition and in an environment such that water was changed every three days. The respective regeneration states of their heads were observed over time with an optical microscope every 24 hours after cutting to evaluate the degree of regeneration after 15 days had elapsed in the same manner as in Example 1. At this time, the planarians were determined as to whether they “had been regenerated” or “were unregenerated” in the same manner as in Example 1. The number of planarians determined to “have been regenerated” was counted over time, and the result thereof is indicated in Table 2.\nThe treating method using Azakenpaullone was referred to a description of Teresa Adel et al., Dev Genes Evol 218(2008) 89-103.",
  "data": [
    {"smiles": "O=C1Cc2c([nH]c3ccc(Br)cc23)-c2ncccc2N1", "note": "[Azakenpaullone]", "values": [
      {"measurement": "Number of planarians determined to have been regenerated (cumulative)", "setting": "Group C (n=9), cut immediately after RGA turned downward from maximum, 0 h after cutting", "value": 0},
      {"measurement": "Number of planarians determined to have been regenerated (cumulative)", "setting": "Group C (n=9), cut immediately after RGA turned downward from maximum, 24 h after cutting", "value": 0},
      {"measurement": "Number of planarians determined to have been regenerated (cumulative)", "setting": "Group C (n=9), cut immediately after RGA turned downward from maximum, 48 h after cutting", "value": 0},
      {"measurement": "Number of planarians determined to have been regenerated (cumulative)", "setting": "Group C (n=9), cut immediately after RGA turned downward from maximum, 72 h after cutting", "value": 0},
      {"measurement": "Number of planarians determined to have been regenerated (cumulative)", "setting": "Group C (n=9), cut immediately after RGA turned downward from maximum, 96 h after cutting", "value": 0},
      {"measurement": "Number of planarians determined to have been regenerated (cumulative)", "setting": "Group C (n=9), cut immediately after RGA turned downward from maximum, 120 h after cutting", "value": 0},
      {"measurement": "Number of planarians determined to have been regenerated (cumulative)", "setting": "Group C (n=9), cut immediately after RGA turned downward from maximum, 144 h after cutting", "value": 0},
      {"measurement": "Number of planarians determined to have been regenerated (cumulative)", "setting": "Group C (n=9), cut immediately after RGA turned downward from maximum, 168 h after cutting", "value": 0},
      {"measurement": "Number of planarians determined to have been regenerated (cumulative)", "setting": "Group C (n=9), cut immediately after RGA turned downward from maximum, 192 h after cutting", "value": 0},
      {"measurement": "Number of planarians determined to have been regenerated (cumulative)", "setting": "Group C (n=9), cut immediately after RGA turned downward from maximum, 216 h after cutting", "value": 1},
      {"measurement": "Number of planarians determined to have been regenerated (cumulative)", "setting": "Group C (n=9), cut immediately after RGA turned downward from maximum, 240 h after cutting", "value": 2},
      {"measurement": "Number of planarians determined to have been regenerated (cumulative)", "setting": "Group C (n=9), cut immediately after RGA turned downward from maximum, 264 h after cutting", "value": 2},
      {"measurement": "Number of planarians determined to have been regenerated (cumulative)", "setting": "Group C (n=9), cut immediately after RGA turned downward from maximum, 288 h after cutting", "value": 3},
      {"measurement": "Number of planarians determined to have been regenerated (cumulative)", "setting": "Group C (n=9), cut immediately after RGA turned downward from maximum, 312 h after cutting", "value": 4},
      {"measurement": "Number of planarians determined to have been regenerated (cumulative)", "setting": "Group C (n=9), cut immediately after RGA turned downward from maximum, 336 h after cutting", "value": 4},
      {"measurement": "Number of planarians determined to have been regenerated (cumulative)", "setting": "Group C (n=9), cut immediately after RGA turned downward from maximum, 360 h after cutting", "value": 5},
      {"measurement": "individuals died and disappeared before regeneration", "setting": "Group C, cut immediately after RGA turned downward", "value": "four"},
      {"measurement": "Number of planarians determined to have been regenerated (cumulative)", "setting": "Group D (n=9), cut immediately after RGA turned upward from minimum, 0 h after cutting", "value": 0},
      {"measurement": "Number of planarians determined to have been regenerated (cumulative)", "setting": "Group D (n=9), cut immediately after RGA turned upward from minimum, 24 h after cutting", "value": 0},
      {"measurement": "Number of planarians determined to have been regenerated (cumulative)", "setting": "Group D (n=9), cut immediately after RGA turned upward from minimum, 48 h after cutting", "value": 0},
      {"measurement": "Number of planarians determined to have been regenerated (cumulative)", "setting": "Group D (n=9), cut immediately after RGA turned upward from minimum, 72 h after cutting", "value": 0},
      {"measurement": "Number of planarians determined to have been regenerated (cumulative)", "setting": "Group D (n=9), cut immediately after RGA turned upward from minimum, 96 h after cutting", "value": 0},
      {"measurement": "Number of planarians determined to have been regenerated (cumulative)", "setting": "Group D (n=9), cut immediately after RGA turned upward from minimum, 120 h after cutting", "value": 0},
      {"measurement": "Number of planarians determined to have been regenerated (cumulative)", "setting": "Group D (n=9), cut immediately after RGA turned upward from minimum, 144 h after cutting", "value": 0},
      {"measurement": "Number of planarians determined to have been regenerated (cumulative)", "setting": "Group D (n=9), cut immediately after RGA turned upward from minimum, 168 h after cutting", "value": 0},
      {"measurement": "Number of planarians determined to have been regenerated (cumulative)", "setting": "Group D (n=9), cut immediately after RGA turned upward from minimum, 192 h after cutting", "value": 0},
      {"measurement": "Number of planarians determined to have been regenerated (cumulative)", "setting": "Group D (n=9), cut immediately after RGA turned upward from minimum, 216 h after cutting", "value": 0},
      {"measurement": "Number of planarians determined to have been regenerated (cumulative)", "setting": "Group D (n=9), cut immediately after RGA turned upward from minimum, 240 h after cutting", "value": 6},
      {"measurement": "Number of planarians determined to have been regenerated (cumulative)", "setting": "Group D (n=9), cut immediately after RGA turned upward from minimum, 264 h after cutting", "value": 6},
      {"measurement": "Number of planarians determined to have been regenerated (cumulative)", "setting": "Group D (n=9), cut immediately after RGA turned upward from minimum, 288 h after cutting", "value": 6},
      {"measurement": "Number of planarians determined to have been regenerated (cumulative)", "setting": "Group D (n=9), cut immediately after RGA turned upward from minimum, 312 h after cutting", "value": 6},
      {"measurement": "Number of planarians determined to have been regenerated (cumulative)", "setting": "Group D (n=9), cut immediately after RGA turned upward from minimum, 336 h after cutting", "value": 6},
      {"measurement": "Number of planarians determined to have been regenerated (cumulative)", "setting": "Group D (n=9), cut immediately after RGA turned upward from minimum, 360 h after cutting", "value": 6},
      {"measurement": "individuals died and disappeared before regeneration", "setting": "Group D, cut immediately after RGA turned upward", "value": "three"}
    ]}
  ]
}
